The record followed here is patent US9504756B2, “Self-stabilizing linker conjugates” (priority 2012, dated 2016).

The data set in a line: Thiosuccinimide ring hydrolysis of IgG1 conjugates monitored by electrospray mass spectrometry. The class given is physicochemical. The conditions noted are these: conjugated to reduced human IgG1; pH 7.4, 22° C. An excerpt:
The hydrolysis reaction rates of maleimido drug linkers following conjugation to antibody cysteines can be determined by mass spectrometry, as the hydrolyzed product has a molecular weight 18 daltons greater than the unhydrolyzed conjugate. Reduction of the interchain disulfides of a human IgG1 creates a single reduced cysteine on the light chain and three reduced cysteines on the heavy chain. The self-stabilizing maleimide drug-linker can then be conjugated to the reduced antibody at pH 7.4 and 22° C. and introduced to a high-resolution electrospray mass spectrometer via a reversed-phase HPLC column which separates the conjugated light and heavy chains. The masses of the conjugated light and heavy chains can thus be measured, and the peak intensities determined by standard mass spectrometry data processing software (e.g., MassLynx). By performing a series of injections over time, the disappearance of the peak corresponding to the mass of the original, unhydrolyzed conjugate and the appearance of the peak corresponding to the mass of the hydrolyzed conjugate can be monitored, the intensities of the peaks determined, and the percentage of hydrolyzed conjugate calculated at each timepoint. By plotting the hydrolysis percentage versus time, a curve is generated (e.g., using PRISM) which can be fit to a standard equation for exponential phenomena which includes a parameter for t1/2. […]

diaminopropionyl maleimide: the “time for hydrolysis reaction approaching 100% completion” value is given as “about 2 hours”.
